Active and inactive are the calls of the source. The calls are words filed in the database; no cut-off is given here.
Tests used:
[1] = Cmax in Sprague-Dawley rat at 3 mg/kg, po by LC-MS/MS analysis; assay type: ADME, organism-based; conditions: in vivo
[2] = target: Polyamine deacetylase HDAC10 (Homo sapiens, UniProt Q969S8); experiment: Inhibition of HDAC10 (unknown origin) TR-FRET assay; set-up: species or system Sf9
[3] = target: T1, Class 1 histone deacetylase (Homo sapiens) (UniProt Q13547+O15379+Q92769+Q9BY41); experiment: Inhibition of class 1 HDAC in human RPMI-8226 cells assessed as increase in alpha-tubulin acetylation at 1 to 10 uM incubated for 24 hrs by Western blot analysis; assay type: cell-based; conditions: dose 1-10 µM
T1 sequence (O15379 whole entry, looked up): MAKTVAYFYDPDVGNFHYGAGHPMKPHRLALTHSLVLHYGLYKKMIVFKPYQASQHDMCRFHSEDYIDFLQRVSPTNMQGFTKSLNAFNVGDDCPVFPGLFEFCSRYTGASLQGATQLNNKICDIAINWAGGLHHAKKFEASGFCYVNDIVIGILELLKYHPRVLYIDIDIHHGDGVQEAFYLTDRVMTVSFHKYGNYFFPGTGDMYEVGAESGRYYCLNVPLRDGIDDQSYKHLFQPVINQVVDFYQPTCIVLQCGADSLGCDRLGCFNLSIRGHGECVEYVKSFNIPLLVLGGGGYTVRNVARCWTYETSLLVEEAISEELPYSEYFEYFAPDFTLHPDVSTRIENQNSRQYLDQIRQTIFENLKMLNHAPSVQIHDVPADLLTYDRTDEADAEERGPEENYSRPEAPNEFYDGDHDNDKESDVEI
T1 sequence (Q13547 whole entry, looked up): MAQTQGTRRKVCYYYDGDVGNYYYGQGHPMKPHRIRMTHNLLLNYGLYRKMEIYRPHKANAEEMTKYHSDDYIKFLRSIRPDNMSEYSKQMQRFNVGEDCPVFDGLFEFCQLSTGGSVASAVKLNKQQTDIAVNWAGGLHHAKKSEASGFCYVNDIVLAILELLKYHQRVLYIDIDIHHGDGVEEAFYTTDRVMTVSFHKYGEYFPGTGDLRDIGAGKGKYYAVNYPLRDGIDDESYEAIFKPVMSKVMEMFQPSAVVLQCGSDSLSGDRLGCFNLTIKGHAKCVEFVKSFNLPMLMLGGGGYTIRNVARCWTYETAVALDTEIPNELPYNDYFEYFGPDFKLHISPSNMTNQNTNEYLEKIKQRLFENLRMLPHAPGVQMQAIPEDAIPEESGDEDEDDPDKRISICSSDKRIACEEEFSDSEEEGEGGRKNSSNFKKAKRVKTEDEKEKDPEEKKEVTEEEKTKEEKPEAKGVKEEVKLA
T1 sequence (Q92769 whole entry, looked up): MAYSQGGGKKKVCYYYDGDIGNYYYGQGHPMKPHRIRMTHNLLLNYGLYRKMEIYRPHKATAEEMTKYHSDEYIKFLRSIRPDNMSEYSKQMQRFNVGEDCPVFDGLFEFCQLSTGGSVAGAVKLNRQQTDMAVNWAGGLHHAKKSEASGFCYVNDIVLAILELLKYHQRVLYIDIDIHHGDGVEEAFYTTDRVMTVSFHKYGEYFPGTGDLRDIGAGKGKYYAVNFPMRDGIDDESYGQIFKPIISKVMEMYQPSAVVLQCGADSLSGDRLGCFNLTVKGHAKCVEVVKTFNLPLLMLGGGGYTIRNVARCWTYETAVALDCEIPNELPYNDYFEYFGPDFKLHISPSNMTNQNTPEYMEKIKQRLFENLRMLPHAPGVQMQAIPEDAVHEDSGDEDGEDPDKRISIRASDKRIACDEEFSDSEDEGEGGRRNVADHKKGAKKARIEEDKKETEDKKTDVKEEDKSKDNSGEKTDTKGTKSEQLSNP
T1 sequence (Q9BY41 whole entry, looked up): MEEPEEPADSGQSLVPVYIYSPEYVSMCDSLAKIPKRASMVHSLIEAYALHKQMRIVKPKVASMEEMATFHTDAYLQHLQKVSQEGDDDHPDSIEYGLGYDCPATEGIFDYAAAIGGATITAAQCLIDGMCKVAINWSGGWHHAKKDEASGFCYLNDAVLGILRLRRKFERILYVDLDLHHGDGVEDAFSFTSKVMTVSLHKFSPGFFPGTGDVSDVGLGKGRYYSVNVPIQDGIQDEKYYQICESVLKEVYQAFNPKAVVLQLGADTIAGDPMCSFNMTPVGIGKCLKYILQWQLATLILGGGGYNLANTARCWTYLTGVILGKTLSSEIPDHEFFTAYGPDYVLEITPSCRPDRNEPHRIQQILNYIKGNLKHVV

[4] = AUC (0 to infinity) in Sprague-Dawley rat at 0.2 mg/kg, iv by LC-MS/MS analysis; assay type: ADME, organism-based; conditions: in vivo
[5] = target: Histone deacetylase 9 (Homo sapiens, UniProt Q9UKV0); experiment: Inhibition of HDAC9 (unknown origin) expressed in baculovirus infected in Sf9 cells using RHKKAc as substrate preincubated for 5 to 10 mins followed by substrate addition measured after 2 hrs by fluorescence based assay
Chain of Histone deacetylase 9 (Q9UKV0 whole entry): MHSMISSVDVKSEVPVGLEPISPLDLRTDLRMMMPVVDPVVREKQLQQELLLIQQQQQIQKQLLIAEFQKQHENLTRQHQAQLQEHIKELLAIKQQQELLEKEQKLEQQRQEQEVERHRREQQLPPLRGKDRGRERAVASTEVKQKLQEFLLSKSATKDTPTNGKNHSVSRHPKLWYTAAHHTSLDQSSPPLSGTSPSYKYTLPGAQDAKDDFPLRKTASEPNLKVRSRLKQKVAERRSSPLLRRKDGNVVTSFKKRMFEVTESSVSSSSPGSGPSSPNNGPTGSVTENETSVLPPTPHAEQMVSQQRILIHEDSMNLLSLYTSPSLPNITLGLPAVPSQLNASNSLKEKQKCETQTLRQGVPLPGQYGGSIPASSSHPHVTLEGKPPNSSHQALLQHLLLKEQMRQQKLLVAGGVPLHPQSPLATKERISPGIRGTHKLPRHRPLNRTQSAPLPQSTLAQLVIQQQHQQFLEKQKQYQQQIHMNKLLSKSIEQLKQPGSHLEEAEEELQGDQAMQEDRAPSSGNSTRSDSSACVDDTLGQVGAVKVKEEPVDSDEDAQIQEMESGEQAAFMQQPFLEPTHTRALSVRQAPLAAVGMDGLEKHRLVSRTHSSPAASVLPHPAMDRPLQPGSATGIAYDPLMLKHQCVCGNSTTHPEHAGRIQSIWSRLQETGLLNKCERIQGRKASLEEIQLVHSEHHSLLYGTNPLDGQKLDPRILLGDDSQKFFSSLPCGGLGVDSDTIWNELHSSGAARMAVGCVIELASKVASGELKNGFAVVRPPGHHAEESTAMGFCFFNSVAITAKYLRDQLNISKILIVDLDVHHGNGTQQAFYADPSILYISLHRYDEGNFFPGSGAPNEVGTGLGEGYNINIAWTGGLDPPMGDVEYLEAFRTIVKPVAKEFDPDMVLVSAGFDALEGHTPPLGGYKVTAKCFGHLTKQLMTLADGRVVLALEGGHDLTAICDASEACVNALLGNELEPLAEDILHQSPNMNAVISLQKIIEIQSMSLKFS

[6] = AUC (0 to infinity) in Sprague-Dawley rat at 3 mg/kg, po by LC-MS/MS analysis; assay type: ADME, organism-based; conditions: in vivo
[7] = AUC (0 to last) in Sprague-Dawley rat at 3 mg/kg, po by LC-MS/MS analysis; assay type: ADME, organism-based; conditions: in vivo
[8] = Half life in Sprague-Dawley rat at 3 mg/kg, po by LC-MS/MS analysis; assay type: ADME, organism-based; conditions: in vivo
[9] = AUC (0 to last) in Sprague-Dawley rat at 0.2 mg/kg, iv by LC-MS/MS analysis; assay type: ADME, organism-based; conditions: in vivo
[10] = Oral bioavailability in Sprague-Dawley rat at 3 mg/kg by LC-MS/MS analysis; assay type: ADME, organism-based; conditions: in vivo
[11] = target: Histone deacetylase 5 (Homo sapiens, UniProt Q9UQL6); experiment: Inhibition of HDAC5 (unknown origin) expressed in baculovirus infected in Sf9 cells using RHKKAc as substrate preincubated for 5 to 10 mins followed by substrate addition measured after 2 hrs by fluorescence based assay
Chain of Histone deacetylase 5 (Q9UQL6 whole entry): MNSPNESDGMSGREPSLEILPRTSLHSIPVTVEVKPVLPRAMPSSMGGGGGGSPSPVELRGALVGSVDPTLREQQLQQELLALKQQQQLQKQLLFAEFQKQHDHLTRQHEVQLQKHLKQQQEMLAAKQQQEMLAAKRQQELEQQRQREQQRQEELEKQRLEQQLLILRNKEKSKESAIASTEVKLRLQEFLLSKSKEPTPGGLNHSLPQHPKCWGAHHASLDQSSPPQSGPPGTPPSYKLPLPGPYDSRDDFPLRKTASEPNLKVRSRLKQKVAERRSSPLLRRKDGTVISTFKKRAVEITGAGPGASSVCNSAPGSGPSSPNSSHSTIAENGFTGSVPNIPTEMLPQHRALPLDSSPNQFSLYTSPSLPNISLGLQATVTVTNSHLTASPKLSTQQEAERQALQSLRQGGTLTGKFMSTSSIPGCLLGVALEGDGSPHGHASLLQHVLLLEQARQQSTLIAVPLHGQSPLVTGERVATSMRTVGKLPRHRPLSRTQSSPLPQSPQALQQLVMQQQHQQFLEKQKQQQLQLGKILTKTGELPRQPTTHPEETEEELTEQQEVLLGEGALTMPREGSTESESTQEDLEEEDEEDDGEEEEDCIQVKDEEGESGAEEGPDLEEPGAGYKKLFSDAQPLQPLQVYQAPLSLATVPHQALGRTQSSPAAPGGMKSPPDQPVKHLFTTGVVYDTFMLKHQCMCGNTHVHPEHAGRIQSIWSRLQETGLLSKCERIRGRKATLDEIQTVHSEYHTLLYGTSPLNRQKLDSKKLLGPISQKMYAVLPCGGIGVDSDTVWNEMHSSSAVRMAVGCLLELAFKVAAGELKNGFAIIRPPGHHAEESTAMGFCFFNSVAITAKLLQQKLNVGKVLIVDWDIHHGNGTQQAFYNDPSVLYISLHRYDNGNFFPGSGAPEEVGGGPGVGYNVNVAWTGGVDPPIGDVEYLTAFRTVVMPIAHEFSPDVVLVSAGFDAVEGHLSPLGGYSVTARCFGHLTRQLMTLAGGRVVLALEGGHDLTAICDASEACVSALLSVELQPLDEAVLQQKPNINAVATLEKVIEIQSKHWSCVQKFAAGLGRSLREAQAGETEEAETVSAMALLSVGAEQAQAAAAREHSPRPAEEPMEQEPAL

[12] = Tmax in Sprague-Dawley rat at 3 mg/kg, po by LC-MS/MS analysis; assay type: ADME, organism-based; conditions: in vivo
[13] = target: Histone deacetylase 2 (Homo sapiens, UniProt Q92769); assay type: cell-based, Sf9
Chain of Histone deacetylase 2 (Q92769 whole entry): as the sequence (Q92769 whole entry, looked up) above

[14] = target: T2, Protein deacetylase HDAC6 (Homo sapiens, UniProt Q9UBN7); experiment: Inhibition of HDAC6 (unknown origin) expressed in baculovirus infected in Sf9 cells using RHKKAc as substrate preincubated for 5 to 10 mins followed by substrate addition measured after 2 hrs by fluorescence based assay
T2 sequence (Q9UBN7 whole entry): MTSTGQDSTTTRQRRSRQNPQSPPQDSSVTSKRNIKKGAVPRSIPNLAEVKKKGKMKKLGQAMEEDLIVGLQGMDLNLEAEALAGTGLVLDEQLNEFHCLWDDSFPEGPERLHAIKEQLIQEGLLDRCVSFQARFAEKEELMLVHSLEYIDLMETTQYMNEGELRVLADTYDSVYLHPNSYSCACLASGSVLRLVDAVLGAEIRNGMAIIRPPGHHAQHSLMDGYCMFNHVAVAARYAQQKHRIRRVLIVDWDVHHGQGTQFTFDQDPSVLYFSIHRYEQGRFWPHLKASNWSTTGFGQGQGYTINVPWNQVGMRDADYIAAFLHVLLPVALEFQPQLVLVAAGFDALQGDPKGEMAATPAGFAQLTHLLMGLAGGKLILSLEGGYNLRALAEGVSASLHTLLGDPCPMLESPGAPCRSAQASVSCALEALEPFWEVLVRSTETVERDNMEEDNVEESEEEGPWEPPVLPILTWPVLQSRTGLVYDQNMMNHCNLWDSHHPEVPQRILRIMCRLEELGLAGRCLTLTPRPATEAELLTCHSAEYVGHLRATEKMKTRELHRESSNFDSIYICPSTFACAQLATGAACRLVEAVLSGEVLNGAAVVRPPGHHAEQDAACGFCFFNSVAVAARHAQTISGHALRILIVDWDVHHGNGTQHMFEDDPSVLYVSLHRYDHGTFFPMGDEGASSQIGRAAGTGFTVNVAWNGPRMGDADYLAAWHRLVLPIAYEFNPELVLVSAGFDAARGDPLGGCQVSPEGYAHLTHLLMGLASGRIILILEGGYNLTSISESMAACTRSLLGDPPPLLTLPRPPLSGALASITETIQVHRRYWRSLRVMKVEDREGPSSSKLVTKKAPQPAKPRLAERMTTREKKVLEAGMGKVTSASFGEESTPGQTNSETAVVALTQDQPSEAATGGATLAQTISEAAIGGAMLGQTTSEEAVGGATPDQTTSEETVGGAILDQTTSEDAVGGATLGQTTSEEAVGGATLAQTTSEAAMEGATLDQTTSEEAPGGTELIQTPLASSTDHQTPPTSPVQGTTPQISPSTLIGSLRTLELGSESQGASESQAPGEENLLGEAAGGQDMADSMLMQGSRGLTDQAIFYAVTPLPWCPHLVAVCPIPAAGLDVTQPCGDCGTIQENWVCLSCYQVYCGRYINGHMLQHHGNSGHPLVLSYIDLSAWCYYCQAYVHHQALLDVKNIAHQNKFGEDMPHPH

[15] = Volume of distribution at steady state in Sprague-Dawley rat at 0.2 mg/kg, iv by LC-MS/MS analysis; assay type: ADME, organism-based; conditions: in vivo, read-out: Vdss
[16] = target: T1, Class 1 histone deacetylase (Homo sapiens); experiment: Inhibition of class 1 HDAC in human RPMI-8226 cells assessed as increase in histone H3 acetylation at 1 to 10 uM incubated for 24 hrs by Western blot analysis; assay type: cell-based; conditions: dose 1-10 µM

Chain of Polyamine deacetylase HDAC10 (Q969S8 whole entry): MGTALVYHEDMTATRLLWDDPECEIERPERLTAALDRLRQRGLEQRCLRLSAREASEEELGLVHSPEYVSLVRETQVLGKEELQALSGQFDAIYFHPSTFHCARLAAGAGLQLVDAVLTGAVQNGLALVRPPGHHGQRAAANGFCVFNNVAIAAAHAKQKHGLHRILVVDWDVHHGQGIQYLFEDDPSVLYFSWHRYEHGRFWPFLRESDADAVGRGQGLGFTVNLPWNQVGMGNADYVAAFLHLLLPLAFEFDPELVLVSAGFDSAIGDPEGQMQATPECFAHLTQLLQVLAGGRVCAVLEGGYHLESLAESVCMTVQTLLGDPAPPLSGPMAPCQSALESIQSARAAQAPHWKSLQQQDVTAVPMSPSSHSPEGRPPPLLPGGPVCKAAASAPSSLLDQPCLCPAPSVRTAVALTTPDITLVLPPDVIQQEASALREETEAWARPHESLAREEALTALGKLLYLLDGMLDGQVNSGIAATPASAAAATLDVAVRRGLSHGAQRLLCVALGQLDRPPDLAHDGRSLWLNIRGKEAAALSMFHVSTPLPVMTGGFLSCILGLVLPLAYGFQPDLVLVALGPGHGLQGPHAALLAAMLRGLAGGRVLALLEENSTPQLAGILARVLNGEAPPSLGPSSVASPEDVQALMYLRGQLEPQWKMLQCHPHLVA

With O=C(NO)c1ccc(CNC(=O)[C@H]2Cc3c([nH]c4ccccc34)[C@H](c3ccc(Cl)cc3)N2)cc1 the Cmax [1] was 1390 nM, the IC50 [2] was 496 nM and the inhibition [3] was “Active”. It also gave an AUC(0-inf) [4] of 1.52 µM·h, an IC50 [5] greater than 50000 nM and an AUC(0-inf) [6] of 9.71 µM·h. It also gave an AUC(0-t) [7] of 9.6 µM·h, a half-life [8] of 3.41 h and an AUC(0-t) [9] of 1.46 µM·h. The bioavailability [10] was 43.8%, the IC50 [11] was greater than 50000 nM and the Tmax [12] was 1.54 h. For the same compound, the IC50 [13] was 98.7 nM, the IC50 [14] was 2.68 nM and the Vd [15] was 0.81 L/kg. For the same compound, the inhibition [16] was “Active”.

Reference: ChEMBL document CHEMBL5625247, “Tetrahydro-β-carboline derivatives as potent histone deacetylase 6 inhibitors with broad-spectrum antiproliferative activity” (Eur J Med Chem, 2023)
